For 1 molecule, Kd results are on record in PMC8654847, “Design of a methotrexate-controlled chemical dimerization system and its use in bio-electronic devices” (Nature Communications, 2021).

One may read the Kd as the free concentration of one partner at which half of the binding sites on the other are occupied at equilibrium, for simple one-to-one binding. A lower Kd goes with a tighter complex.

Each structure is given as a SMILES string.

In the test the target is T1, anti-MTX VHH.
T1 construct: nanoCLAMP8-VHH fusion for the crystal structure 7RG7
As to the kind of experiment: microscale thermophoresis (EGFP-VHH titrated with MTX); […] Å crystal structure of the ternary complex with nanoCLAMP8. In kind it is binding. On the technique in general: In MST a laser heats a spot of the sample, and binding alters the fluorescence response.

`CN(Cc1cnc2nc(N)nc(N)c2n1)c1ccc(C(=O)N[C@@H](CCC(=O)O)C(=O)O)cc1` [MTX, methotrexate] gave a Kd of 4.3 ± 0.25 nM.
